Patent US4428937A, “Antibacterial agents” (Beecham Group Limited, priority 1975, dated 1984)

How the values were obtained:
[1] = test system: Staphylococcus aureus Russell; test: In-vitro synergy: MIC of ampicillin in presence of sodium deoxyclavulanate; type: cell-based
Description: (§1) The antibacterial and synergistic properties of sodium deoxyclavulanate are illustrated by the following in-vitro results: | Minimum Inhibitory Concentration | (μg/ml) of Ampicillin in Presence | of Various Concentrations of | Sodium Deoxyclavulanate (μg/ml) |Organism 0 1 5 20

Klebsiella aerogenes E70 = test: as above; type: cell-based
Description: as §1

[2] = prior disclosures; cited from earlier work
β-lactamase = conditions: prior disclosures; cited from earlier work
[3] = test system: Salmonella typhimurium CT10; test: In-vitro minimum inhibitory concentration; type: cell-based; conditions: Salmonella enterica
Description: (§2) The antibacterial and synergistic properties of sodium deoxyclavulanate are illustrated by the following in-vitro results: | Minimum Inhibitory | Concentration of Sodium | Organism Deoxyclavulanate (μg/ml)

[4] = test system: Serratia marcescens US 39; test: In-vitro minimum inhibitory concentration; type: cell-based; conditions: US39
Description: as §2

Pseudomonas aeruginosa A = test: In-vitro minimum inhibitory concentration; type: cell-based
Description: as §2

Staph. aureus Oxford = test: In-vitro minimum inhibitory concentration; type: cell-based; conditions: Staphylococcus aureus
Description: as §2

Escherichia coli 10418 = test: In-vitro minimum inhibitory concentration; type: cell-based
Description: as §2

Enterobacter cloacae N1 = test: In-vitro minimum inhibitory concentration; type: cell-based
Description: as §2

Proteus mirabilis C 977 = test: In-vitro minimum inhibitory concentration; type: cell-based; conditions: C977
Description: as §2

Bacillus subtilis A = test: In-vitro minimum inhibitory concentration; type: cell-based
Description: as §2

Klebsiella aerogenes A = test: In-vitro minimum inhibitory concentration; type: cell-based
Description: as §2

Staph. aureus Russell = test: In-vitro minimum inhibitory concentration; type: cell-based; conditions: Staphylococcus aureus
Description: as §2

[5] = Overt toxic effects in mice, intraperitoneal; type: in vivo; conditions: intra peritoneally, 500 mg/kg
[6] = sodium deoxyclavulanate 0 μg/ml, read-out: Minimum Inhibitory Concentration of Ampicillin
[7] = sodium deoxyclavulanate 1 μg/ml
[8] = sodium deoxyclavulanate 5 μg/ml

## CC1(C)S[C@@H]2[C@H](NC(=O)[C@H](N)c3ccccc3)C(=O)N2[C@H]1C(=O)O [Ampicillin]
[1]; [6]
  MIC: 500 µg/mL
[1]; [7]
  Minimum Inhibitory Concentration of Ampicillin in Presence of Sodium Deoxyclavulanate: 0.8 µg/mL
[1]; [8]
  Minimum Inhibitory Concentration of Ampicillin in Presence of Sodium Deoxyclavulanate: 0.08 µg/mL
Klebsiella aerogenes E70; [6]
  MIC: > 500 µg/mL
Klebsiella aerogenes E70; [7]
  Minimum Inhibitory Concentration of Ampicillin in Presence of Sodium Deoxyclavulanate: 0.8 µg/mL
Klebsiella aerogenes E70; [8]
  Minimum Inhibitory Concentration of Ampicillin in Presence of Sodium Deoxyclavulanate: 0.2 to 0.4 µg/mL

## O=C(O)[C@H]1/C(=C\CO)O[C@@H]2CC(=O)N21 [Isoclavulanic acid, isoclavulanic acid]
[2]
  anti-bacterial activity: also have anti-bacterial
β-lactamase
  β-lactamase inhibitory activity: β-lactamase inhibitory activity

## C/C=C1\O[C@@H]2CC(=O)N2[C@H]1C(=O)O [Sodium deoxyclavulanate, Sodium Deoxyclavulanate]
[1]; sodium deoxyclavulanate 20 μg/ml
  Inhibition by sodium deoxyclavulanate alone: Inhibition produced by sodium deoxyclavulanate alone
[3]
  MIC: 125 µg/mL
[4]
  MIC: 125 µg/mL
Pseudomonas aeruginosa A
  MIC: 1000 µg/mL
Staph. aureus Oxford
  MIC: 15.6 µg/mL
Escherichia coli 10418
  MIC: 62.5 µg/mL
Enterobacter cloacae N1
  MIC: 125 µg/mL
Proteus mirabilis C 977
  MIC: 125 µg/mL
Bacillus subtilis A
  MIC: 62.5 µg/mL
Klebsiella aerogenes A
  MIC: 62.5 µg/mL
Staph. aureus Russell
  MIC: 31 µg/mL
[5]
  overt toxic effects: did not appear to produce any overt toxic effects

## O=C(O)[C@H]1/C(=C/CO)O[C@@H]2CC(=O)N21 [clavulanic acid]
[2]
  anti-bacterial activity: possess anti-bacterial
β-lactamase
  β-lactamase inhibitory activity: β-lactamase inhibitory activity
